Read-outs that look alike come from different tables or passages of the source.
Tests used:
Test in all cases: Test C pre-/postemergence herbicide test
morningglory = format: in vivo, Ipomoea coccinea; parameters: key to Plant response rating, Morningglory: 0 = no effect, 100 = complete control; details: for pest or weed control at 62 g/ha / Plant response rating, Morningglory / Plant response rating (0 = no effect, 100 = complete control), Morningglory: preemergence; for pest or weed control at 125 g/ha / Plant response rating (0 = no effect, 100 = complete control), Morningglory: 125 g ai/ha; for pest or weed control at 125 g/ha: scale 0 (no effect) to 100 (complete control)
Source text: (§1) Seeds of plant species selected from bermudagrass (Cynodon dactylon (L.) Pers.), Surinam grass (Urochloa decumbens (Staph) R. D. Webster, previously named Brachiaria decumbens Stapf), cocklebur (Xanthium strumarium L.), corn (Zea mays L.), large crabgrass (Digitaria sanguinalis (L.) Scop.), woolly cupgrass (Eriochloa villosa (Thunb.) Kunth), giant foxtail (Setaria faberi Herrm.), goosegrass (Eleusine indica (L.) Gaertn.), johnsongrass (Sorghum halepense (L.) Pers.), kochia (Kochia scoparia (L.) Schrad.), lambsquarters (Chenopodium album L.), morningglory (Ipomoea coccinea L.), eastern black nightshade (Solanum ptycanthum Dunal), yellow nutsedge (Cyperus esculentus L.), pigweed (Amaranthus retroflexus L.), common ragweed (Ambrosia elatior L.), soybean (Glycine max (L.) Merr.), common (oilseed) sunflower (Helianthus annuus L.) and velvetleaf (Abutilon theophrasti Medik.) were planted and treated preemergence with test chemicals formulated in a non-phytotoxic solvent mixture which included a surfactant.
(§2) At the same time, plants selected from these crop and weed species and also winter barley (Hordeum vulgare L.), blackgrass (Alopecurus myosuroides Huds.), canarygrass (Phalaris minor Retz.), chickweed (Stellaria media (L.) Vill.), downy bromegrass (Bromus tectorum L.), green foxtail (Setaria viridis (L.) Beauv.), Italian ryegrass (Lolium multiflorum Lam.), wheat (Triticum aestivum L.), wild oat (Avenafatua L.) and windgrass (Apera spica-venti (L.) Beauv.) were treated with postemergence applications of some of the test chemicals formulated in the same manner. Plants ranged in height from 2 to 18 cm (1- to 4-leaf stage) for postemergence treatments. Plant species in the flooded paddy test consisted of rice (Oryza sativa), smallflower umbrella sedge (Cyperus difformis L.), ducksalad (Heteranthera limosa (Sw.) Willd.) and barnyardgrass (Echinochloa crus-galli (L.) Beauv.) grown to the 2-leaf stage for testing. Treated plants and controls were maintained in a greenhouse for 12 to 14 days, after which time all species were compared to controls and visually evaluated. Plant response ratings, summarized in Table C, are based on a scale of 0 to 100 where 0 is no effect and 100 is complete control. A dash (-) response means no test result.

woolly cupgrass = format: in vivo, Eriochloa villosa; details: for pest or weed control at 62 g/ha / Plant response rating, Cupgrass, Woolly / Plant response rating (0 = no effect, 100 = complete control), Cupgrass, Woolly: preemergence; for pest or weed control at 125 g/ha / Plant response rating (0 = no effect, 100 = complete control), Cupgrass, Woolly: 125 g ai/ha; for pest or weed control at 125 g/ha: scale 0 (no effect) to 100 (complete control)
Source text: as §1, §2

giant foxtail = format: in vivo, Setaria faberi; details: for pest or weed control at 62 g/ha / Plant response rating, Foxtail, Giant / Plant response rating (0 = no effect, 100 = complete control), Foxtail, Giant: preemergence; for pest or weed control at 125 g/ha / Plant response rating (0 = no effect, 100 = complete control), Foxtail, Giant: 125 g ai/ha; for pest or weed control at 125 g/ha: scale 0 (no effect) to 100 (complete control)
Source text: as §1, §2

soybean = format: in vivo, Glycine max; details: for plant injury at 62 g/ha / Plant response rating, Soybean / Plant response rating (0 = no effect, 100 = complete control), Soybean: preemergence
Source text: as §1, §2

yellow nutsedge = format: in vivo, Cyperus esculentus; details: for pest or weed control at 62 g/ha / Plant response rating, Nutsedge, Yellow / Plant response rating (0 = no effect, 100 = complete control), Nutsedge, Yellow: preemergence; for pest or weed control at 125 g/ha / Plant response rating (0 = no effect, 100 = complete control), Nutsedge, Yellow: 125 g ai/ha; for pest or weed control at 125 g/ha: scale 0 (no effect) to 100 (complete control)
Source text: as §1, §2

[1] = Ipomoea, pre-emergence, 62 g ai/ha, scale 0 to 100, read-out: Plant response rating, Morningglory
[2] = Ipomoea, pre-emergence, visual, 12 to 14 days, read-out: Plant response rating, Morningglory
[3] = Preemergence, 500 g ai/ha, scale 0 to 100, 0 no effect, 100 complete control
[4] = Eriochloa villosa, pre-emergence, 312 h, 62 g ai/ha, scale 0 to 100, read-out: Plant response rating, Cupgrass, Woolly
[5] = Eriochloa villosa, pre-emergence, 312 h, visual, 12 to 14 days, read-out: Plant response rating, Cupgrass, Woolly
[6] = Setaria faberi, pre-emergence, 312 h, 62 g ai/ha, scale 0 to 100, read-out: Plant response rating, Foxtail, Giant
[7] = Setaria faberi, pre-emergence, 312 h, visual, 12 to 14 days, read-out: Plant response rating, Foxtail, Giant
[8] = Glycine max, pre-emergence, 62 g ai/ha, scale 0 to 100, read-out: Plant response rating, Soybean
[9] = Cyperus, pre-emergence, 62 g ai/ha, scale 0 to 100, read-out: Plant response rating, Nutsedge, Yellow
[10] = Cyperus, pre-emergence, visual, 12 to 14 days, read-out: Plant response rating, Nutsedge, Yellow
[11] = 500 g ai/ha, scale 0 to 100 (0 no effect, 100 complete control), visual, 12 to 14 days

SMILES | pest or weed control at 62 g/ha (morningglory; [1]) | pest or weed control at 125 g/ha (morningglory; [2]) | pest or weed control at 62 g/ha (woolly cupgrass; [4]) | pest or weed control at 125 g/ha (woolly cupgrass; [5]) | pest or weed control at 62 g/ha (giant foxtail; [6]) | pest or weed control at 125 g/ha (giant foxtail; [7]) | plant injury at 62 g/ha (soybean; [8]) | pest or weed control at 62 g/ha (yellow nutsedge; [9]) | pest or weed control at 125 g/ha (yellow nutsedge; [10]) | Plant response rating, Morningglory (morningglory; 62 g ai/ha, scale 0 to 100) | Plant response rating (0 = no effect, 100 = complete control), Morningglory (morningglory) | Plant response rating, Morningglory (morningglory; [11]) | Plant response rating, Cupgrass, Woolly (woolly cupgrass; 62 g ai/ha, scale 0 to 100) | Plant response rating (0 = no effect, 100 = complete control), Cupgrass, Woolly (woolly cupgrass) | Plant response rating, Cupgrass, Woolly (woolly cupgrass; 250 g ai/ha, scale 0-100) | Plant response rating, Cupgrass, Woolly (woolly cupgrass; [11]) | Plant response rating, Foxtail, Giant (giant foxtail; 62 g ai/ha, scale 0 to 100) | Plant response rating (0 = no effect, 100 = complete control), Foxtail, Giant (giant foxtail) | Plant response rating, Foxtail, Giant (giant foxtail; 250 g ai/ha, scale 0-100) | Plant response rating, Foxtail, Giant (giant foxtail; [11]) | further results
CCn1nc(C(C)(C)C)cc1C(=O)Nc1cc(C(=O)N(C)C)ccn1 [Compound 156, 2-[[[3-(1,1-dimethylethyl)-1-ethyl-1H-pyrazol-5-yl]carbonyl]amino]-N,N-dimethyl-4-pyridinecarboxamide] | 8% | 60% | 33% | 70% | 75% | 83% | 33% | 35% | 60% |  |  |  |  |  |  |  |  |  |  |  | Morningglory plant response rating (morningglory; [3]): 100; pest or weed control at 250 g/ha (woolly cupgrass; Eriochloa villosa, pre-emergence, 312 h, 250 g ai/ha, scale 0 to 100 (0 no effect, 100 complete control), visual, 12 to 14 days, read-out: Plant response rating, Cupgrass, Woolly): 80%; Cupgrass, Woolly plant response rating (woolly cupgrass; [3]): 90; Foxtail, Giant plant response rating (giant foxtail; [3]): 95; pest or weed control at 250 g/ha (giant foxtail; Setaria faberi, pre-emergence, 312 h, 250 g ai/ha, scale 0 to 100 (0 no effect, 100 complete control), visual, 12 to 14 days, read-out: Plant response rating, Foxtail, Giant): 85%; plant injury at 125 g/ha (soybean; Glycine max, pre-emergence, 125 g ai/ha, scale 0 (no effect) to 100 (complete control), visual, 12 to 14 days, read-out: Plant response rating, Soybean): 50%; Soybean plant response rating (soybean; [3]): 100; Nutsedge, Yellow plant response rating (yellow nutsedge; [3]): 85
CCNC(=S)c1cccc(NC(=O)c2nn(C(C)(C)C)nc2C)c1 [Compound 420] |  |  |  |  |  |  |  |  |  | 10 | 55 | 100 | 0 | 10 | 20 | 65 | 20 | 90 | 100 | 100 | Plant response rating, Soybean (soybean; 62 g ai/ha, scale 0 to 100): 0; Plant response rating (0 = no effect, 100 = complete control), Soybean (soybean; 125 g ai/ha): 10; Plant response rating, Soybean (soybean; [11]): 85; Plant response rating, Nutsedge, Yellow (yellow nutsedge; 62 g ai/ha, scale 0 to 100): 0; Plant response rating (0 = no effect, 100 = complete control), Nutsedge, Yellow (yellow nutsedge): 0; Plant response rating, Nutsedge, Yellow (yellow nutsedge; [11]): 25
Cc1nn(C(C)(C)C)nc1C(=O)Nc1cccc(C(=S)N(C)C)c1 [Compound 419] |  |  |  |  |  |  |  |  |  | 15 | 25 | 100 | 0 | 15 | 45 | 65 | 75 | 85 | 95 | 100 | Plant response rating, Soybean (soybean; 62 g ai/ha, scale 0 to 100): 40; Plant response rating (0 = no effect, 100 = complete control), Soybean (soybean; 125 g ai/ha): 85; Plant response rating, Soybean (soybean; [11]): 95; Plant response rating, Nutsedge, Yellow (yellow nutsedge; 62 g ai/ha, scale 0 to 100): 0; Plant response rating (0 = no effect, 100 = complete control), Nutsedge, Yellow (yellow nutsedge): 0; Plant response rating, Nutsedge, Yellow (yellow nutsedge; [11]): 0
CCNC(=O)c1cccc(NC(=O)c2nn(C(C)(C)C)cc2Br)c1 [Compound 221, 4-bromo-1-(1,1-dimethylethyl)-N-[3-[(ethylamino)carbonyl]phenyl]-1H-pyrazole-3-carboxamide] | 0% | 0% | 0% | 0% | 0% | 0% | 0% | 0% | 0% |  |  |  |  |  |  |  |  |  |  |  | pest or weed control at 250 g/ha (morningglory; Ipomoea, pre-emergence, 250 g ai/ha, scale 0-100, read-out: Plant response rating, Morningglory): 0%; pest or weed control at 500 g/ha (morningglory; Ipomoea, pre-emergence, 500 g ai/ha, scale 0 to 100 (0 no effect, 100 complete control), visual, 12 to 14 days, read-out: Plant response rating, Morningglory): 0%; pest or weed control at 250 g/ha (woolly cupgrass; Eriochloa villosa, pre-emergence, 312 h, 250 g ai/ha, scale 0-100, read-out: Plant response rating, Cupgrass, Woolly): 0%; pest or weed control at 500 g/ha (woolly cupgrass; Eriochloa villosa, pre-emergence, 312 h, 500 g ai/ha, scale 0 to 100 (0 no effect, 100 complete control), visual, 12 to 14 days, read-out: Plant response rating, Cupgrass, Woolly): 10%; pest or weed control at 250 g/ha (giant foxtail; Setaria faberi, pre-emergence, 312 h, 250 g ai/ha, scale 0-100, read-out: Plant response rating, Foxtail, Giant): 40%; pest or weed control at 500 g/ha (giant foxtail; Setaria faberi, pre-emergence, 312 h, 500 g ai/ha, scale 0 to 100 (0 no effect, 100 complete control), visual, 12 to 14 days, read-out: Plant response rating, Foxtail, Giant): 90%; plant injury at 250 g/ha (soybean; Glycine max, pre-emergence, 250 g ai/ha, scale 0-100, read-out: Plant response rating, Soybean): 0%; plant injury at 500 g/ha (soybean; Glycine max, pre-emergence, 500 g ai/ha, scale 0 to 100 (0 no effect, 100 complete control), visual, 12 to 14 days, read-out: Plant response rating, Soybean): 20%; pest or weed control at 250 g/ha (yellow nutsedge; Cyperus, pre-emergence, 250 g ai/ha, scale 0-100, read-out: Plant response rating, Nutsedge, Yellow): 0%; pest or weed control at 500 g/ha (yellow nutsedge; Cyperus, pre-emergence, 500 g ai/ha, scale 0 to 100 (0 no effect, 100 complete control), visual, 12 to 14 days, read-out: Plant response rating, Nutsedge, Yellow): 0%

From patent US20060069132A1, “Azolecarboxamide herbicides” (priority 2004, published 2006)
